Test results as given in patent US5780431A, “Pharmaceutical formulations of corticotropin releasing factor having improved stability in liquid form” (Neurobiological Technologies, Inc., priority 1996, dated 1998).
Values after ≈ are worked out from the molar mass of the structure shown. Values joined by “and” are separate entries in the source; they are usually repeats but may differ in a detail not shown here. Identical values can stand only once. Like-named read-outs stand apart in the source and are kept apart here.

How the values were obtained:
[1] = Solubility of CRF in various buffer solutions; type: physicochemical; conditions: for solubility: read-out: CRF solubility (gross weight)
Protocol: (§1) In an effort to develop liquid formulations of CRF useful for commercial pharmaceutical purposes, experiments designed to measure the solubility of CRF in a variety of different buffer solutions were carried out. Specifically, CRF was added in increasing amounts to a variety of different buffer solutions at various different concentrations and pH's, either in the presence or absence of other excipient additives and the solubility of the CRF product was determined. Table 1 summarizes the results of these experiments measuring the solubility of CRF in various phosphate, citrate and acetate buffers, either in the presence or absence of various excipients such as NaCl and mannitol. CRF solubility is expressed in gross weight of CRF in mg/ml of solution.

[2] = Solubility of CRF in various non-volatile buffer solutions; type: physicochemical
Protocol: as §1
Next, because it is known that certain buffers may be volatilized when lyophilized, further experiments were conducted as described above to examine the solubility of CRF in various other non-volatile buffer solutions.

CRF solubility ([1]; acetate buffer between pH 4 and 5 without added NaCl): very soluble
CRF solubility ([1]; citrate buffer between pH 4 and 6): < 200 µg/mL
solubility ([1]; citrate buffer, pH 4, aqueous buffer, pH 4.0, 25 mM Citrate, 150 mM NaCl): 20 µg/mL (≈ 4.2 µM)
solubility ([1]; citrate buffer, pH 4, aqueous buffer, pH 4.0, 25 mM Citrate): 40 µg/mL (≈ 8.41 µM)
solubility ([1]; citrate buffer, pH 5.1, aqueous buffer, pH 5.1, 25 mM Citrate, 150 mM NaCl): 10 µg/mL (≈ 2.1 µM)
solubility ([1]; citrate buffer, pH 5.1, aqueous buffer, pH 5.1, 25 mM Citrate): 20 µg/mL (≈ 4.2 µM)
CRF solubility (gross weight) ([1]; pH 2.0, 10 mM PO4, 138 mM NaCl): 50000 µg/mL
CRF solubility (gross weight) ([1]; pH 4.08, 5 mM Citrate): 200 µg/mL
CRF solubility (gross weight) ([1]; pH 4.08, 5 mM Citrate, 150 mM NaCl): 160 µg/mL
CRF solubility (gross weight) ([1]; pH 4.2, 5 mM HOAC, 150 mM NaCl): 1170 µg/mL
CRF solubility (gross weight) ([1]; pH 4.2, 25 mM HOAc): 29000 µg/mL
CRF solubility (gross weight) ([1]; pH 4.26, 20 mM HOAc, 5% mannitol): 14500 µg/mL
CRF solubility (gross weight) ([1]; pH 4.34, 20 mM HOAc, 5% mannitol): 11200 µg/mL
CRF solubility (gross weight) ([1]; pH 4.4, 5 mM HOAC): 33000 µg/mL
CRF solubility (gross weight) ([1]; pH 4.45, 20 mM HOAc, 5% mannitol): 13800 µg/mL
CRF solubility (gross weight) ([1]; pH 4.49, 25 mM HOAc): 5340 µg/mL
CRF solubility (gross weight) ([1]; pH 4.49, 25 mM HOAc, 150 mM NaCl): 280 µg/mL
CRF solubility (gross weight) ([1]; pH 4.52, 20 mM HOAc, 5% mannitol): 12500 µg/mL
CRF solubility (gross weight) ([1]; pH 4.6, 5 mM HOAC, 5% mannitol): 2200 µg/mL
CRF solubility (gross weight) ([1]; pH 4.7, 5 mM HOAC, 1% mannitol): 1960 µg/mL
CRF solubility (gross weight) ([1]; pH 4.72, 5 mM HOAC, 1% Tween): 1970 µg/mL
CRF solubility (gross weight) ([1]; pH 4.73, 20 mM HOAc, 5% mannitol): 1530 µg/mL
CRF solubility (gross weight) ([1]; pH 4.81, 5 mM HOAC): 1130 µg/mL
CRF solubility (gross weight) ([1]; pH 4.9, 25 mM HOAc): 370 µg/mL
CRF solubility (gross weight) ([1]; pH 4.9, 25 mM HOAc, 150 mM NaCl): 140 µg/mL
CRF solubility (gross weight) ([1]; pH 4.92, 5 mM Citrate): 30 µg/mL
CRF solubility (gross weight) ([1]; pH 4.92, 5 mM Citrate, 150 mM NaCl): 10 µg/mL
CRF solubility (gross weight) ([1]; pH 4.94, 20 mM HOAc, 5% mannitol): 70 µg/mL
CRF solubility (gross weight) ([1]; pH 5.0, 5 mM HOAC): 130 µg/mL
CRF solubility (gross weight) ([1]; pH 5.23, 20 mM HOAc, 5% mannitol): 40 µg/mL
CRF solubility (gross weight) ([1]; pH 5.84, 5 mM Citrate): 40 µg/mL
CRF solubility (gross weight) ([1]; pH 5.84, 5 mM Citrate, 150 mM NaCl): 20 µg/mL
CRF solubility (gross weight) ([1]; pH 6.0, 5 mM HOAC): 30 µg/mL
CRF solubility (gross weight) ([1]; pH 6.1, 25 mM Citrate): 100 µg/mL
CRF solubility (gross weight) ([1]; pH 6.1, 25 mM Citrate, 150 mM NaCl): 70 µg/mL
CRF solubility (gross weight) ([1]; pH 6.24, 25 mM HOAc): 90 µg/mL
CRF solubility (gross weight) ([1]; pH 6.24, 25 mM HOAc, 150 mM NaCl): 50 µg/mL
CRF solubility (gross weight) ([1]; pH 7.1, 10 mM PO4, 138 mM NaCl): 480 µg/mL and 840 µg/mL
CRF solubility ([1]; phosphate buffer between pH 2 and 3.6): very soluble
solubility ([1]; phosphate buffer, pH 3.6, aqueous buffer, pH 3.6, 10 mM PO4, 138 mM NaCl): 2640 µg/mL (≈ 555 µM)
solubility ([1]; phosphate buffer, pH 4.2, aqueous buffer, pH 4.2, 10 mM PO4, 138 mM NaCl): 290 µg/mL (≈ 61 µM)
solubility ([1]; phosphate buffer, pH 4.5, aqueous buffer, pH 4.5, 10 mM PO4, 138 mM NaCl): 620 µg/mL (≈ 130 µM)
solubility ([1]; phosphate buffer, pH 5.6, aqueous buffer, pH 5.6, 10 mM PO4, 138 mM NaCl): 310 µg/mL (≈ 65.2 µM)
solubility ([1]; phosphate buffer, pH 6.02, aqueous buffer, pH 6.02, 5 mM PO4): 80 µg/mL (≈ 16.8 µM)
solubility ([1]; phosphate buffer, pH 6.7, aqueous buffer, pH 6.7, 10 mM PO4, 138 mM NaCl): 520 µg/mL (≈ 109 µM)
solubility ([1]; phosphate buffer, pH 6.96, aqueous buffer, pH 6.96, 5 mM PO4): 470 µg/mL (≈ 98.8 µM)
solubility ([1]; phosphate buffer, pH 7.32, aqueous buffer, pH 7.32, 20 mM PO4): 1460 µg/mL (≈ 307 µM)
solubility ([1]; phosphate buffer, pH 7.7, aqueous buffer, pH 7.7, 5 mM PO4): 460 µg/mL (≈ 96.7 µM)
CRF solubility ([2]; 10 mM Phosphate, pH 7.3): 3.0 net mg/ml
CRF solubility ([2]; 10 mM Phosphate, pH 7.3 + 25 mM ascorbate): 1.2 net mg/ml
CRF solubility ([2]; 10 mM Phosphate, pH 7.3 + 0.25% arginine): 2.0 net mg/ml
CRF solubility ([2]; 10 mM Phosphate, pH 7.3 + 0.25% glycine): 2.2 net mg/ml
CRF solubility ([2]; 25 mM Ascorbic, pH 4.0): 4.5 net mg/ml
CRF solubility ([2]; 25 mM Lactic, pH 4.0): 1.9 net mg/ml
CRF solubility ([2]; 25 mM Succinic, pH 4.0): 4.2 net mg/ml
CRF solubility ([2]; 25 mM Tartaric, pH 4.0): 0.2 net mg/ml
CRF solubility ([2]; ascorbic, lactic, succinic and phosphate buffers tested): extremely soluble
Compound: CC[C@H](C)[C@H](NC(=O)[C@@H](NC(=O)[C@H](CCC(=O)O)NC(=O)[C@H](CCSC)NC(=O)[C@H](CC(C)C)NC(=O)[C@H](CCCCN)NC(=O)[C@H](CCCNC(=N)N)NC(=O)[C@H](CC(N)=O)NC(=O)[C@H](CO)NC(=O)[C@H](Cc1c[nH]cn1)NC(=O)[C@H](C)NC(=O)[C@H](CCC(N)=O)NC(=O)[C@H](CCC(N)=O)NC(=O)[C@H](C)NC(=O)[C@H](CC(C)C)NC(=O)[C@H](CCC(N)=O)NC(=O)[C@H](CCC(=O)O)NC(=O)[C@H](C)NC(=O)[C@H](CCCNC(=N)N)NC(=O)[C@H](C)NC(=O)[C@H](CCSC)NC(=O)[C@H](CCC(=O)O)NC(=O)[C@H](CC(C)C)NC(=O)[C@@H](NC(=O)[C@H](CCC(=O)O)NC(=O)[C@H](CCCNC(=N)N)NC(=O)[C@H](CC(C)C)NC(=O)[C@H](CC(C)C)NC(=O)[C@H](Cc1c[nH]cn1)NC(=O)[C@H](Cc1ccccc1)NC(=O)[C@@H](NC(=O)[C@H](CC(C)C)NC(=O)[C@H](CC(=O)O)NC(=O)[C@H](CC(C)C)NC(=O)[C@H](CO)NC(=O)[C@@H](NC(=O)[C@@H]1CCCN1C(=O)[C@@H]1CCCN1C(=O)[C@H](CCC(=O)O)NC(=O)[C@H](CCC(=O)O)NC(=O)[C@@H](N)CO)[C@@H](C)CC)[C@@H](C)O)C(C)C)[C@@H](C)CC)C(N)=O [CRF]
